How the values were obtained:
[1] = test system: HCT-116; experiment: Antiproliferative activity against human HCT-116 cells assessed as inhibition of cell growth by MTT assay; format: functional, cell-based
[2] = test system: A2780; experiment: Antiproliferative activity against human A2780 cells assessed as inhibition of cell growth by MTT assay; format: functional, cell-based
[3] = test system: PANC-1; experiment: Antiproliferative activity against human PANC-1 cells assessed as inhibition of cell growth by MTT assay; format: functional, cell-based
[4] = test system: MCF7; experiment: Antiproliferative activity against human MCF7 cells assessed as inhibition of cell growth by MTT assay; format: functional, cell-based
[5] = Cytotoxicity against HUVEC cells assessed as inhibition of cell growth by MTT assay; details: human
[6] = test system: HL-60; experiment: Antiproliferative activity against human HL-60 cells assessed as inhibition of cell growth by MTT assay; format: functional, cell-based
[7] = test system: K562; experiment: Antiproliferative activity against human K562 cells assessed as inhibition of cell growth by MTT assay; format: functional, cell-based
[8] = test system: RS4-11; experiment: Antiproliferative activity against human RS4-11 cells assessed as inhibition of cell growth by MTT assay; format: functional, cell-based
[9] = test system: HCT-116; experiment: Induction of apoptosis in human HCT-116 cells assessed as viable cells at 1 uM incubated for 24 hrs by Annexin V-FITC/PI staining based flow cytometry analysis (reference value: 93.2%); format: functional
[10] = test system: HCT-116; experiment: Induction of apoptosis in human HCT-116 cells assessed as early apoptotic cells at 1 uM incubated for 24 hrs by Annexin V-FITC/PI staining based flow cytometry analysis (reference value: 6.50%); format: functional
[11] = test system: HCT-116; experiment: Induction of apoptosis in human HCT-116 cells assessed as necrotic cells at 1 uM incubated for 24 hrs by Annexin V-FITC/PI staining based flow cytometry analysis (reference value: 0.00%); format: functional
[12] = test system: HCT-116; experiment: Induction of cell cycle arrest in human HCT-116 assessed as increase in G2/M phase cells at 1 uM incubated for 48 hrs by flow cytometric analysis (reference value: 23.70%); format: functional
[13] = test system: HCT-116; experiment: Induction of apoptosis in human HCT-116 cells assessed as late apoptotic cells at 1 uM incubated for 24 hrs by Annexin V-FITC/PI staining based flow cytometry analysis (reference value: 0.323%); format: functional
[14] = test system: HCT-116; experiment: Induction of apoptosis in human HCT-116 cells assessed as total apoptotic cells at 1 uM incubated for 24 hrs by Annexin V-FITC/PI staining based flow cytometry analysis (reference value: 6.823%); format: functional
[15] = test system: HCT-116; experiment: Induction of cell cycle arrest in human HCT-116 assessed as S phase cells at 1 uM incubated for 48 hrs by flow cytometric analysis (reference value: 12.79%); format: functional
[16] = test system: HCT-116; experiment: Induction of cell cycle arrest in human HCT-116 assessed as decrease in G0/G1 phase cells at 1 uM incubated for 48 hrs by flow cytometric analysis (reference value: 63.51%); format: functional; design: scale not given: the % may be the effect or the level left

SMILES	IC50 [1]	IC50 [2]	IC50 [3]	IC50 [4]	IC50 [6]	IC50 [7]	IC50 [8]	IC50 [5]	Activity [9]	Activity [10]	Activity [11]	Activity [12]	Activity [13]	Activity [14]	Activity [15]	Activity [16]
O=C(CCCCCCCNc1nc2ccccc2nc1-c1nc2ccccc2o1)NO	3.04 µM	3.27 µM	2.87 µM	1.52 µM	0.89 µM	0.89 µM	0.89 µM	17.4 µM	–	–	–	–	–	–	–	–
O=C(CCCNc1nc2ccccc2nc1-c1nc2ccccc2o1)NO	4.59 µM	6.29 µM	3.68 µM	4.98 µM	–	–	–	24 µM	–	–	–	–	–	–	–	–
O=C(CCCCCCC(=O)Nc1ccccc1)NO [VORINOSTAT]	–	–	–	–	–	–	–	–	58.4%	34.9%	0.146%	30.87%	6.59%	41.49%	11.02%	58.11%

Now from value to compound, other results behind:

IC50 [1]	IC50 [2]	IC50 [3]	IC50 [4]	IC50 [6]	IC50 [7]	IC50 [8]	SMILES	IC50 [5]	Activity [9]	Activity [10]	Activity [11]	Activity [12]	Activity [13]	Activity [14]	Activity [15]	Activity [16]
6.51 µM	17.9 µM	11 µM	7.33 µM	–	–	–	Nc1ccccc1NC(=O)CCCCCCNc1nc2ccccc2nc1-c1nc2ccccc2o1	16.7 µM	–	–	–	–	–	–	–	–
2.44 µM	4.07 µM	1.92 µM	3.69 µM	–	–	–	O=C(CCCCCNc1nc2ccccc2nc1-c1nc2ccccc2o1)NO	16.4 µM	–	–	–	–	–	–	–	–
9.94 µM	12.6 µM	11.2 µM	9.36 µM	–	–	–	Nc1ccccc1NC(=O)CCCCCNc1nc2ccccc2nc1-c1nc2ccccc2o1	15.3 µM	–	–	–	–	–	–	–	–
9.08 µM	7.13 µM	10.5 µM	12.5 µM	–	–	–	Nc1ccccc1NC(=O)CCCCCCCNc1nc2ccccc2nc1-c1nc2ccccc2o1	21.5 µM	–	–	–	–	–	–	–	–
17.2 µM	23.9 µM	21.6 µM	33.5 µM	–	–	–	Nc1ccccc1NC(=O)CCCNc1nc2ccccc2nc1-c1nc2ccccc2o1	27.2 µM	–	–	–	–	–	–	–	–

Source: ChEMBL document CHEMBL5257106, “Design, synthesis, and biological evaluation of novel HDAC inhibitors with a 3-(benzazol-2-yl)quinoxaline framework” (Bioorg Med Chem Lett, 2023)
